These are literature values, as cited in article PMC8198792, “Prediction of Anticancer Peptides with High Efficacy and Low Toxicity by Hybrid Model Based on 3D Structure of Peptides” (International Journal of Molecular Sciences, 2021).

Read-outs that look alike come from different tables or passages of the source.

Data set [1] concerns many types of cells, including non-cancer cells. The following applies: toxic peptides dataset TD2; class label 1 (toxic, positive set) or 0 (non-toxic AMP, negative set); ref SATPdb; cited from earlier work.
A further data set has as its system cancer cell lines. On the set-up: method as in 6 sources, ref CancerPPD [45] and SATPdb ||| ref CancerPPD/SATPdb ||| ref CancerPPD, SATPdb, Swissprot (PDB) ||| ref CancerPPD/SATPdb/Swissprot(PDB) ||| ref CancerPPD / SATPdb ||| ... The following applies: cited from earlier work. From the text:
Supplement ijms-22-05630-s001.zip/ACPs(seguence).xlsx, sheet "D1" | column: Activity || Supplement ijms-22-05630-s001.zip/ACPs(seguence).xlsx, sheet "D2" | column: Activity || Supplement ijms-22-05630-s001.zip/ACPs(seguence).xlsx, sheet "D3" | column: Activity || (+ 2 further places)

In a further data set the test system is erythrocytes. Particulars: cited from earlier work. From the text: Supplement ijms-22-05630-s001.zip/Hemloytic Peptides(seguence).xlsx, sheet "HD1" | column: Activity || Supplement ijms-22-05630-s001.zip/Hemloytic Peptides(seguence).xlsx, sheet "HD2" | column: Activity || Supplement ijms-22-05630-s001.zip/Hemloytic Peptides(seguence).xlsx, sheet "HD3" | column: Activity

Where [2] appears, read: ACPs dataset D1, 1 = ACP (positive), 0 = non-ACP (negative), label taken from databases, ref CancerPPD [45] and SATPdb.
The mark [3] stands for this setting: ACPs dataset D4 (sheet "D4"), label 1 = ACP (CancerPPD ID), 0 = non-ACP (non-anticancer AMP, SATPdb ID), ref CancerPPD [45] and SATPdb.
Where [4] appears, read: ACPs dataset D3 (sheet "D3"), label 1 = ACP, 0 = non-ACP, ref CancerPPD/SATPdb.
Setting [5] is: ACPs dataset D4 (sheet "D4"), label 1 = ACP, 0 = non-ACP, ref CancerPPD / SATPdb.
The mark [6] stands for this setting: ACPs dataset D5, sheet "D5", label 1 = ACP, 0 = non-ACP, ref CancerPPD [45] and SATPdb.
Where [7] appears, read: ACPs dataset D1, label 1 = ACP, 0 = non-ACP (non-anticancer AMPs from SATPdb), ref CancerPPD/SATPdb.
[8] abbreviates: ACPs dataset D3 (supplement sheet "D3"), 1 = ACP, 0 = non-ACP, ref CancerPPD [45] and SATPdb.
The mark [9] stands for this setting: Hemolytic peptides dataset HD2, label 1 = hemolytic, 0 = non-hemolytic, ref Hemolytik/SATPdb.
The mark [10] stands for this setting: hemolytic peptides dataset HD3, 1 = hemolytic (positive set), 0 = non-hemolytic (negative set), labels taken from databases, ref Hemolytik/SATPdb.
Where [11] appears, read: natural hemolytic peptide dataset HD1, label collected from databases, ref Hemolytik [49], SATPdb [34].

Regarding LLGMIPLAISAISALSKL [satpdb26571], in data set [1], the Activity is reported as 1.

On to FLPFLIPALTSLISSL [satpdb15275], for which, in data set [1], the Activity is on record as 0.

Regarding VDIHVWD*GV [satpdb19274], the Activity in data set [1] is reported as 1.

In the case of “GVIIDTLKGAAKTVAAELLRKAHCKLTNSC [satpdb16783]”, the Activity in data set [1] is on record as 1.

Regarding FLGAIAAALPHVINAVTNAL [satpdb16106], the Activity in data set [1] is given as 1.

For GVVTDLLNTAGGLLGNLVGSLSG [satpdb21886], the Activity in data set [1] was 1.

In the case of FVQWFSKFLGRIL [satpdb16211], the Activity in data set [1] is 1.

In the case of FLSAITSLLGKLL [satpdb15955], the Activity in data set [1] is reported as 0.

As for FLPLVLGALSGILPKIL [satpdb22972], the Activity in data set [1] is on record as 1.

GLLDFVTGVGKDIFAQLIKQI [satpdb25435]: the Activity in data set [1] was 1.

With TKPTLLGLPLGAGPAAGPGKR [satpdb17447], the Activity in data set [1] is reported as 0.

Take RILRGVSRRIMRRILTGRR [satpdb20239]: the Activity in data set [1] is on record as 1.

For the substance LLDVLLE [satpdb11533], in data set [1], the Activity is on record as 0.

Regarding GLFDIVKKIAGHIVSSI [satpdb13076], the Activity in data set [1] is given as 0.

On to FLGLLGSLL [satpdb15039], for which the Activity in data set [1] is given as 0.

With GFKRIVQRIKDFLRNLV [satpdb10735], the Activity in data set [1] is listed as 0.

As for GLVTGLLKTAGKLLGDLFGSLSG [satpdb20565], in data set [1], the Activity is on record as 1.

“GRRRRSVQWCAVSQPEATKCFQWQRNMRKVRGPPVSCIKRDSPIQCIQA [satpdb10374]”: the Activity in data set [1] is on record as 0.

For the substance GVVTDLLKTAGKLLGNLVGSLSG [satpdb26504], the Activity in data set [1] is on record as 1.

For GFMKYIGPLIPHAVKAISDLI [satpdb17997], in data set [1], the Activity is 1.

On to ALKAALLAILKIVRVIKK [satpdb15928], for which the Activity in data set [1] is listed as 0.

On to FLPLIGKILGTIL [satpdb15913], for which the Activity in data set [1] is given as 0.

Take NILNTIINLAKKIL [satpdb16074]: the Activity in data set [1] is recorded as 0.

In the case of “RRRPRPPYLPRPRPPPFFPPRLPPRIPPGFPPRFPPRFP [satpdb15417]”, the Activity in data set [1] is recorded as 0.

For FLPVILPVIGKLLSGIL [satpdb17809], in data set [1], the Activity is 1.

Consider GFKDLLKGAAKALVKTVLF [satpdb25277], for which the Activity in data set [1] is 1.

With FLPAALAGIGGILGKLF [satpdb24046], the Activity in data set [1] is reported as 1.

For LLPIVGNLLNSLL [satpdb24565], the Activity in data set [1] was 1.

Regarding FIGAILPAIAGLVHGLINR [satpdb19442], the Activity in data set [1] is on record as 1.

For ILPILSLIGGLLGK [satpdb11856], in data set [1], the Activity was 0.

Turning to KAYSMPRCKYLFRAVLCWL [satpdb15879], the Activity in data set [1] is given as 0.

Turning to GALRGCWTKSYPPKPCK [satpdb24908], the Activity in data set [1] is reported as 1.

For the substance GVLSVIKNALPGIMRF [satpdb16950], in data set [1], the Activity is 0.

Regarding GLLDIVKKVVGAFGSL [satpdb12368], the Activity in data set [1] is reported as 0.

As to “RFRLPFRRPPIRIHPPPFYPPFRRFL [satpdb12266]”, the Activity in data set [1] is given as 1.

In the case of GLVTGLLKTAGKLLGDLFGSLTG [satpdb19701], the Activity in data set [1] is recorded as 1.

Take FLPLLFGALSTLLPKIF [satpdb23665]: in data set [1], the Activity is on record as 1.

In the case of FFPIVGKRLYGLL [satpdb15392], the Activity in data set [1] is 0.

On to SLSRFLSFLKIVYPPAF [satpdb15130], for which the Activity in data set [1] is reported as 0.

For the substance FLAGLIGGLAKMLGK [satpdb10461], the Activity in the data set on cancer cell lines (setting [2]) was 0; in the data set with cancer cell lines (setting [3]), 0; with erythrocytes, 1. The “Activity (dataset HD1, hemolytic 1 / non-hemolytic 0)” value in the data set with erythrocytes is 1.

Turning to VKlKVyPLKVKLyP [satpdb13308], the Activity in the data set on cancer cell lines (setting [4]) is recorded as 0; in the data set on cancer cell lines (setting [5]), 0; in the data set with cancer cell lines (setting [6]) it was 0; with erythrocytes, 1.

“GLGSLLGKAFKIGLKTVGKMMGGAPREQ [satpdb12448]”: the Activity is 0 with cancer cell lines (setting [7]), 0 with cancer cell lines (setting [3]) and 1 in the data set with erythrocytes. Moreover, the “Activity (dataset HD1, hemolytic 1 / non-hemolytic 0)” value with erythrocytes is on record as 1.

In the case of IWRIFRRIFRIF [satpdb11167], the Activity is listed as 0 in the data set on cancer cell lines (setting [8]); 0 in the data set with cancer cell lines (setting [5]); 0 in the data set on cancer cell lines (setting [6]); 1 in the data set with erythrocytes (setting [9]); 1 in the data set with erythrocytes (setting [10]).

For the substance “ALWFTMLKKLGTMALHAGKAALGAAANTISQGTQ [satpdb13357]”, the results for the Activity with cancer cell lines (setting [7]), with cancer cell lines (setting [5]) and in the data set on erythrocytes were 0, 0 and 1, respectively. Further, in the data set with erythrocytes, the “Activity (dataset HD1, hemolytic 1 / non-hemolytic 0)” value is reported as 1.

KKKKKKAAAAFWAAAAF [satpdb11398]: the Activity in the data set on cancer cell lines (setting [8]), with cancer cell lines (setting [5]), with cancer cell lines (setting [6]) and with erythrocytes was 0 in each case.

For the substance “DYDWSLRGPPKCATYGQKCRTWSPPNCCWNLRCKAFRCRPR [satpdb13169]”, the Activity with cancer cell lines (setting [7]) is listed as 0; in the data set on cancer cell lines (setting [5]) it was 0; in the data set with erythrocytes (setting [10]), 1. Further, the “Activity (dataset HD1, hemolytic 1 / non-hemolytic 0)” value in the data set with erythrocytes (setting [11]) is given as 1.

With FRPKVTITIQGSARF [satpdb11995], the Activity in the data set on cancer cell lines (setting [4]), in the data set with cancer cell lines (setting [5]), in the data set with cancer cell lines (setting [6]) and with erythrocytes was 0 in each case.

On to RKLRRLKRKIAHKVKKY [satpdb10022], for which the Activity in the data set with cancer cell lines (setting [8]), in the data set with cancer cell lines (setting [5]), with cancer cell lines (setting [6]) and in the data set on erythrocytes was 0 each time.

For the substance ILPKKKPWWPWRR [satpdb13640], the Activity is reported as 0 with cancer cell lines (setting [4]), 0 in the data set on cancer cell lines (setting [5]), 0 in the data set on cancer cell lines (setting [6]) and 1 in the data set on erythrocytes.

For the substance LLIILRRRWRKQARARSK [satpdb13104], the Activity is given as 0 in the data set on cancer cell lines (setting [4]), 0 in the data set with cancer cell lines (setting [5]), 0 in the data set on cancer cell lines (setting [6]) and 1 in the data set with erythrocytes.

Consider FLSLALAALPKLFCLIFKKC [satpdb10291], for which the Activity with cancer cell lines (setting [2]) is 0; in the data set with cancer cell lines (setting [3]), 0; in the data set with erythrocytes (setting [10]), 1. In the data set on erythrocytes (setting [11]), the “Activity (dataset HD1, hemolytic 1 / non-hemolytic 0)” value was 1.

Turning to “GLWDTIKQAGKKFFLNVLDKIRCKVAGGCRT [satpdb11099]”, the Activity is recorded as 0 in the data set on cancer cell lines (setting [2]), 0 in the data set with cancer cell lines (setting [3]) and 1 with erythrocytes (setting [10]). Also, the “Activity (dataset HD1, hemolytic 1 / non-hemolytic 0)” value in the data set with erythrocytes (setting [11]) is listed as 1.

On to FKCKKVVISLRRY [satpdb11913], for which the Activity in the data set on cancer cell lines (setting [7]), in the data set with cancer cell lines (setting [3]) and in the data set on erythrocytes (setting [10]) was 0 in each case. In the data set on erythrocytes (setting [11]), the “Activity (dataset HD1, hemolytic 1 / non-hemolytic 0)” value is on record as 0.

For the substance “RLKELITTGGQKIGEKIRRIGQRIKDFFKNLQPREEKS [satpdb11766]”, the Activity in the data set on cancer cell lines (setting [7]) is on record as 0; in the data set on cancer cell lines (setting [3]), 0; in the data set with erythrocytes it was 1. The “Activity (dataset HD1, hemolytic 1 / non-hemolytic 0)” value in the data set with erythrocytes was 1.

On to KWFKKIPKFLHLAKKF [compound 1150], for which the Activity with cancer cell lines (setting [8]) was 1; in the data set with cancer cell lines (setting [3]) it was 1; in the data set with cancer cell lines (ACPs dataset D5 (sheet "D5"), label 1 = ACP (positive set), 0 = non-ACP (negative set), ref CancerPPD [45] and SATPdb) it was 1; in the data set on erythrocytes (setting [9]), 1; in the data set with erythrocytes (setting [10]) it was 1.

Turning to ILPWKWPWWPWRR [satpdb10356], the Activity in the data set with cancer cell lines (setting [8]) was 0; in the data set on cancer cell lines (setting [5]), 0; in the data set with cancer cell lines (setting [6]) it was 0; with erythrocytes (setting [9]), 1; in the data set on erythrocytes (setting [10]) it was 1.

On to VKLyPVKLyP [satpdb11941], for which the Activity is on record as 0 in the data set on cancer cell lines (setting [8]); 0 with cancer cell lines (setting [5]); 0 with cancer cell lines (setting [6]); 1 with erythrocytes (setting [9]); 1 in the data set with erythrocytes (setting [10]).

Consider kklfkkILKYL [satpdb10342], for which the Activity in the data set on cancer cell lines (setting [8]), in the data set on cancer cell lines (setting [5]), in the data set on cancer cell lines (setting [6]), in the data set on erythrocytes (setting [9]) and in the data set on erythrocytes (setting [10]) was 0 each time.
